In patent US5807874A, “Trisbenzimidazoles useful as topoisomerase I inhibitors” (Rutgers, The State University of New Jersey, priority 1995, dated 1998):
Entries after “also recorded” stand apart in the source; their conditions may differ.

How the values were obtained:
tumor cells = assay: Cytotoxicity to tumor cells (cell line not specified); assay type: cell-based; conditions: for cytotoxicity of 3- and 4-pyridyl versus 2-pyridyl analog (in words): relative to the 2-pyridyl derivative, 14
[1] = test system: calf thymus topoisomerase I; assay: Topoisomerase I-mediated DNA cleavage assay (calf thymus topoisomerase I); assay type: biochemical; conditions: for potency as topoisomerase I inhibitor (in words): compared with Hoechst 33342 or with each other; for Topo I-mediated DNA cleavage (REC, Relative Effective Concentration): concentration relative to Hoechst 33342 (arbitrarily 1) producing the same cleavage on plasmid DNA, calf thymus topoisomerase I
From the text: DNA topoisomerase I was purified from calf thymus gland as reported previously by B. D. Halligan et al., J. Biol. Chem. 260, 2475 (1985). Plasmid YEpG was also purified by the alkali lysis method followed by phenol deproteination and CsCl/ethidium isopycnic centrifugation as described by T. Mariatis et al., Molecular Cloning, A Laboratory Manual, Cold Spring Harbor Labs, N.Y. (1982) at pages 149-185. The end-labeling of the plasmid was accomplished as previously described by L. F. Liu et al., J. Biol. Chem., 258, 15365 (1983). The cleavage assays were performed as previously reported by A. Y. Chen et al., Cancer Res. 53, 1332 (1993). Human topoisomerase was isolated as a recombinant fusion protein using a T7 expression system.
^b Topoisomerase I cleavage values are reported as REC, Relative
Effective Concentration, i.e. concentrations relative to Hoechst 33342,
whose value is arbitrarily assumed as 1, that are able to produce the sam
cleavage on the plasmid DNA in the presence of calf thymus topoisomerase
I. Cleavage is calculated from the intensity of the strongest Hoechst

topoisomerase I = conditions: Hoechst 33342; cited from earlier work
CPT-K5 [2] = assay: MTT cytotoxicity assay, camptothecin-resistant CPT-K5; assay type: cell-based, human
Procedure: (§1) The cytotoxicity was determined using the as MTT-microtiter plate tetrazolinium cytotoxicity assay (MTA) following the procedures of F. Denizot et al., J. Immunol. […] The cytotoxicity assay was performed using 96-well microtiter plates. Cells were grown in suspension at 37° C. in 5% CO2 and maintained by regular passage in RPMI medium supplemented with 10% heat inactivated fetal bovine serum, L-glutamine (2 mM), penicillin (100 U/ml), and streptomycin (0.1 mg/ml). For determination of IC50, cells were exposed continuously with varying concentrations of drug concentrations and MTT assays were performed at the end of the fourth day.

[3] = cited from earlier work
minor groove of DNA = conditions: literature; cited from earlier work
KBV-1 cells [4] = conditions: as reported by A. Y. Chen et al., Adv. Pharmacol. (1994); cited from earlier work
CPT-K5 [5] = conditions: as reported by A. Y. Chen et al., Cancer Res., 53, 1332 (1993); cited from earlier work
KBV-1 cells [6] = assay: MTT cytotoxicity assay, multidrug-resistant KBV-1 (overexpresses MDR1); assay type: cell-based, human; conditions: KB 3-1 versus KB V-1
Procedure: as §1
These cells were grown as monolayer cultures at in 5% CO2 and maintained by regular passage in Dulbecco's minimal essential medium supplemented with 10% heat inactivated fetal bovine serum. KBV-1 cells were similarly maintained except they were grown in the presence of 1 μg/ml vinblastine.

[7] = test system: human MDR1 (P-glycoprotein); assay: MDR1 (P-glycoprotein) substrate, inferred from KB 3-1 versus KB V-1 cytotoxicity; assay type: cell-based; conditions: inferred from KB 3-1 / KB V-1 IC50 values
Procedure: The drug sensitive human epidermoid carcinoma KB3-1 cell line (S. Aliyama et al., Somatic Cell Mol. Genet., 11, 117 (1985)) and its vinblastine-selected multidrug-resistant variant KBV-1 cells (D. W. Shen et al., Science, 32, 643 (1986)) were provided by Dr. Michael Gottesmann (National Cancer Institute, Bethesda, Md.). These cells were grown as monolayer cultures at in 5% CO2 and maintained by regular passage in Dulbecco's minimal essential medium supplemented with 10% heat inactivated fetal bovine serum. KBV-1 cells were similarly maintained except they were grown in the presence of 1 μg/ml vinblastine.

c1cncc(-c2ccc3[nH]c(-c4ccc5[nH]c(-c6ccc7[nH]cnc7c6)nc5c4)nc3c2)c1 [Compound 15, 5-(3-Pyridyl)-2-[2'-(benzimidazol-5"-yl)benzimidazol-5'-yl]benzimidazole]
cytotoxicity of 3- and 4-pyridyl versus 2-pyridyl analog (in words) (tumor cells): somewhat more active than the 2-pyridyl derivative, 14 | potency as topoisomerase I inhibitor (in words) [1]: somewhat more active than the 2-pyridyl derivative, 14 | Topo I-mediated DNA cleavage (REC, Relative Effective Concentration) [1]: 2

CCCc1ccc2[nH]c(-c3ccc4[nH]c(-c5ccc6[nH]cnc6c5)nc4c3)nc2c1 [Compound 12, 5-Propyl-2-[2'-(benzimidazol-5"-yl)benzimidazol-5'-yl]benzimidazole]
cytotoxicity to tumor cells (in words, general) (tumor cells): weak cytotoxicity | potency as topoisomerase I inhibitor (in words) [1]: much less active than either 10, 11, or 13 | Topo I-mediated DNA cleavage (REC, Relative Effective Concentration) [1]: 100

CCOc1ccc(-c2nc3cc(-c4nc5cc(N6CCN(C)CC6)ccc5[nH]4)ccc3[nH]2)cc1 [Hoechst 33342, 2'-(4-ethoxyphenyl)-5-(4-methyl-1-piperazinyl)-2,5'-bi-1H-benzimidazole]
topoisomerase I inhibition (literature) (topoisomerase I): inhibitor of topoisomerase I; also recorded: traps the reversible cleavable complex derived from DNA and topoisomerase I | effect against camptothecin-resistant CPT-K5 cells (in words) (CPT-K5 [2]): effective against camptothecin-resistant CPT-K5 cells | protonation at physiological pH [3]: extensively protonated at physiological pH | binding to DNA (minor groove of DNA): binds to the minor groove of DNA | IC50 difference, KB 3-1 as compared to KB V-1 cells (literature) (KBV-1 cells [4]): approximately two-orders of magnitude

c1cc(-c2ccc3[nH]c(-c4ccc5[nH]c(-c6ccc7[nH]cnc7c6)nc5c4)nc3c2)ccn1 [Compound 16, 5-(4-Pyridyl)-2-[2'-(benzimidazol-5"-yl)benzimidazol-5'-yl]benzimidazole]
cytotoxicity of 3- and 4-pyridyl versus 2-pyridyl analog (in words) (tumor cells): somewhat more active than the 2-pyridyl derivative, 14 | potency as topoisomerase I inhibitor (in words) [1]: somewhat more active than the 2-pyridyl derivative, 14 | Topo I-mediated DNA cleavage (REC, Relative Effective Concentration) [1]: 2

N#Cc1ccc2[nH]c(-c3ccc4[nH]cnc4c3)nc2c1 [Compound 19, 5-Cyano-2-(benzimidazol-5'-yl)benzimidazole]
Topo I-mediated DNA cleavage (REC, Relative Effective Concentration) [1]: 1000

c1ccc2[nH]c(-c3ccc4[nH]c(-c5ccc6[nH]cnc6c5)nc4c3)nc2c1 [Compound 10, 2-[2'-(Benzimidazol-5"-yl)benzimidazol-5'-yl]benzimidazole]
Topo I-mediated DNA cleavage (REC, Relative Effective Concentration) [1]: 1.1

c1ccc(-c2ccc3[nH]c(-c4ccc5[nH]c(-c6ccc7[nH]cnc7c6)nc5c4)nc3c2)nc1 [Compound 14, 5-(2-Pyridyl)-2-[2'-(benzimidazol-5"-yl)benzimidazol-5'-yl]benzimidazole]
antifungal activity (Antifungal activity): exhibits antifungal activity | Topo I-mediated DNA cleavage (REC, Relative Effective Concentration) [1]: 3.3

CC[C@@]1(O)C(=O)OCc2c1cc1n(c2=O)Cc2cc3ccccc3nc2-1 [camptothecin]
relative resistance of camptothecin (CPT-K5 [5]): 2,500 fold

c1ccc(-c2ccc3[nH]c(-c4ccc5[nH]c(-c6ccc7[nH]cnc7c6)nc5c4)nc3c2)cc1 [Compound 13, 5-Phenyl-2-[2'(benzimidazol-5"-yl)benzimidazol-5'-yl]benzimidazole]
IC50 difference between KB 3-1 and KB V-1 cells (in words) (KBV-1 cells [6]): little difference | effect against camptothecin-resistant CPT-K5 cells (in words) (CPT-K5 [2]): effective against camptothecin-resistant CPT-K5 cells | substrate for human MDR1 [7]: appears not to be a substrate for human MDR1 | potency as topoisomerase I inhibitor (in words) [1]: approximately one-half as potent as Hoechst 33342 | Topo I-mediated DNA cleavage (REC, Relative Effective Concentration) [1]: 2

N#Cc1ccc2[nH]c(-c3ccc4[nH]c(-c5ccc6[nH]cnc6c5)nc4c3)nc2c1 [Compound 11, 5-Cyano-2-[2'-(benzimidazol-5"-yl)benzimidazol-5'-yl]benzimidazole]
Topo I-mediated DNA cleavage (REC, Relative Effective Concentration) [1]: 1
